{"source": "patent US20200383969A1", "about": "“RIMEGEPANT FOR CGRP RELATED DISORDERS” (Biohaven Pharmaceutical Holding Company Ltd., priority 2018, published 2020)", "key": {"[1]": {"experiment": "Study 303 (BHV3000-303), Phase 3, rimegepant 75 mg ODT vs placebo, acute treatment of migraine", "format": "in vivo, human", "description": "Clinical Trial—BHV3000-303: Phase 3: Double-Blind, Randomized, Placebo-Controlled, Safety and Efficacy Trial of BHV-3000 (Rimegepant) Orally Discintegrating Tablet (ODT) for the Acute Treatment of Migraine (ClinicalTrials.gov Identifier: NCT03461757) • Study Type: Interventional (Clinical Trial) • Actual Enrollment: 1812 participants • Allocation: Randomized • Intervention Model: Parallel Assignment • Masking: Triple (Participant, Care Provider, Investigator) • Primary Purpose: Treatment • Official Title: BHV3000-303: Phase 3, Double-Blind, Randomized, Placebo Controlled, Safety and Efficacy Trial of BHV-3000 (Rimegepant) Orally Disintegrating Tablet (ODT) for the Acute Treatment of Migraine • Actual Study Start Date: Feb. 27, 2018 • Actual Primary Completion Date: Oct. 8, 2018 • Actual Study Completion Date: Oct. 15, 2018 • 1. Pain freedom of rimegepant compared with placebo in the acute treatment of migraine will be measured using the number of evaluable subjects that report no pain at 2 hours post-dose. • Pain will be measured on a 4 point Likert scale (0=none, 1=mild, 2=moderate, 3=severe) • 2. Freedom from the most bothersome symptom (MBS) of rimegepant compared with placebo will be measured using the number of evaluable subjects that report the absence of their MBS at 2 hours post-dose. [Time Frame: Two Hours Post Dose] • The MBS (nausea, phonophobia or photophobia) will measured using a binary scale (0=absent, 1=present). • 1. […] [Time Frame: 2 Hours Post-Dose] • Pain Relief as measured by a 4 point numeric rating scale (None, Mild, Moderate, Severe) • 2. […] [ Time Frame: 2 hours-24 hours post-dose] • Sustained Pain Relief as measured by a 4 point numeric rating scale (None, Mild, Moderate, Severe) • 4. […] To measure rimegepant compared to placebo on the probability of requiring rescue medication will be assessed using the number of subjects that take rescue medication within […] administration of study medication (BHV3000 or placebo). […] Sustained ability to function at a normal level as measured by the Functional disability scale [Time Frame: 2 to 24 hours post dose] • Subjects self-report “normal” on the functional disability scale • 7. […] [Time Frame: 2 hours-48 hours post-dose] • Sustained Pain Relief as measured by a 4 point numeric rating scale (None, Mild, Moderate, Severe) • 8. […] Sustained ability to function at a normal level as measured by the Functional disability scale [Time Frame: 2 to 48 hours post dose] • Subjects self-report “normal” on the functional disability scale • 10. […] [Time Frame: 90 minutes post dose] • Pain Relief as measured by a 4 point numeric rating scale (None, Mild, Moderate, Severe) • 13. […] [Time Frame: 2 hours -24 hours post-dose] • Sustained Pain Freedom as measured by a 4 point numeric rating scale (None, Mild, Moderate, Severe) • 14. […]"}, "[2]": {"experiment": "Pooled adverse event and liver function test data, Studies 301, 302 and 303", "format": "in vivo, human"}, "[3]": {"settings": "pooled Studies 301, 302, 303, n = 1,771"}}}
{"smiles": "N[C@@H]1c2cccnc2[C@H](OC(=O)N2CCC(n3c(=O)[nH]c4ncccc43)CC2)CC[C@H]1c1cccc(F)c1F", "note": "[Rimegepant, [(5S,6S,9R)-5-amino-6-(2,3-difluorophenyl)-6,7,8,9-tetrahydro-5H-cyclohepta[b]pyridin-9-yl] 4-(2-oxo-3H-imidazo[4,5-b]pyridin-1-yl)piperidine-1-carboxylate]", "values": [{"measurement": "LFTs>3×ULN, number of patients", "setting": "[1]; Study 303", "value": "one"}, {"measurement": "Clinical benefit through 48 hours (pain relief, pain freedom, MBS, functional disability) vs placebo", "setting": "[1]; Study 303, single dose", "value": "Lasting clinical benefit"}, {"measurement": "Safety and tolerability", "setting": "[1]; Study 303 vs Studies 301 and 302", "value": "consistent with the profile previously observed"}, {"measurement": "Highest incidence of any single adverse event", "setting": "[1]; rimegepant group, Study 303 paragraph, sentence follows mention of pooled Table 9", "value": "≤ 1.6", "unit": "%"}, {"measurement": "Bilirubin elevations > 2 × ULN", "setting": "[2]; across Studies 301, 302 and 303", "value": "no patients experienced elevations"}, {"measurement": "ALT or AST >5 × ULN, patients", "setting": "[2]; pooled Studies 301, 302, 303, AST elevation, not drug-related per investigator", "value": "(0.06%)^2"}, {"measurement": "ALT or AST >3 × ULN, patients", "setting": "[2]; [3]", "value": "(0.1%)"}, {"measurement": "ALT or AST >ULN, patients", "setting": "[2]; [3]", "value": "(2.7%)"}]}
